The text below walks through data of patent US9056890B2, “WDHD1 peptides and vaccines including the same” (OncoTherapy Science Inc., priority 2010, dated 2015).

Assay [1] deals with peptide-pulsed TISI cells. Nature of the assay: IFN-gamma ELISPOT assay on CTLs induced with peptide. The conditions noted are these: CTLs from HLA-A*2402 positive donor after 3rd peptide stimulation, versus target cells not pulsed with peptide. Type of assay: cell-based, human. An excerpt: Monocyte-derived dendritic cells (DCs) were used as antigen-presenting cells to induce cytotoxic T lymphocyte (CTL) responses against peptides presented on human leukocyte antigen (HLA). DCs were generated in vitro as described elsewhere (Nakahara S et al., Cancer Res 2003, 63(14): 4112-8). Specifically, peripheral blood mononuclear cells isolated from a normal volunteer (HLA-A*2402 positive) by Ficoll-Plaque (Pharmacia) solution were separated by adherence to a plastic tissue culture dish (Becton Dickinson) so as to enrich them as the monocyte fraction. The monocyte-enriched population was cultured in the presence of 1000 U/ml of granulocyte-macrophage colony-stimulating factor (R&D System) and 1000 U/ml of interleukin (IL)-4 (R&D System) in AIM-V Medium (Invitrogen) containing 2% heat-inactivated autologous serum (AS). After 7 days of culture, the cytokine-induced DCs were pulsed with 20 micro-g/ml of each of the synthesized peptides in the presence of 3 micro-g/ml of beta 2-microglobulin for 3 hr at 37 degrees C. in AIM-V Medium. The generated cells appeared to express DC-associated molecules, such as CD80, CD83, CD86 and HLA class II, on their cell surfaces (data not shown). These peptide-pulsed DCs were then inactivated by X-irradiated (20 Gy) and mixed at a 1:20 ratio with autologous CD8+ T cells, obtained by positive selection with CD8 Positive Isolation Kit (Dynal). These cultures were set up in 48-well plates (Corning); each well contained 1.5×10^4 peptide-pulsed DCs, 3×10^5 CD8+ T cells and 10 ng/ml of IL-7 (R&D System) in 0.5 ml of AIM-V/2% AS medium. Three days later, these cultures were supplemented with IL-2 (CHIRON) to a final concentration of 20 IU/ml. On day 7 and 14, the T cells were further stimulated with the autologous peptide-pulsed DCs. The DCs were prepared each time by the same way described above. CTL was tested against peptide-pulsed TISI cells after the 3rd round of peptide stimulation on day 21 (Tanaka H et al., Br J Cancer 2001, 84(1): 94-9; Umano Y et al., Br J Cancer 2001, 84(8): 1052-7; Uchida N et al., Clin Cancer Res 2004, 10(24): 8577-86; Suda T et al., Cancer Sci 2006, 97(5): 411-9; Watanabe T et al., Cancer Sci 2005, 96(8): 498-506).
(§1) Specifically, peptide-pulsed TISI (1×10^4/well) was prepared as stimulator cells. Cultured cells in 48 wells were used as responder cells. IFN-gamma ELISPOT assay and IFN-gamma ELISA assay were performed under manufacture procedure.

The subject of assay [2] is peptide-pulsed TISI cells. Nature of the assay: IFN-gamma ELISA assay of CTL lines. The format is cell-based, human. The conditions noted are these: target cells pulsed with corresponding peptide versus without peptide pulse. On the procedure:
CTLs were expanded in culture using the method similar to the one described by Riddell et al. (Walter E A et al., N Engl J Med 1995, 333(16): 1038-44; Riddell S R et al., Nat Med 1996, 2(2): 216-23). A total of 5×10^4 CTLs were suspended in 25 ml of AIM-V/5% AS medium with 2 kinds of human B-lymphoblastoid cell lines, inactivated by Mitomycin C, in the presence of 40 ng/ml of anti-CD3 monoclonal antibody (Pharmingen). One day after initiating the cultures, 120 IU/ml of IL-2 were added to the cultures. The cultures were fed with fresh AIM-V/5% AS medium containing 30 IU/ml of IL-2 on days 5, 8 and 11 (Tanaka H et al., Br J Cancer 2001, 84(1): 94-9; Umano Y et al., Br J Cancer 2001, 84(8): 1052-7; Uchida N et al., Clin Cancer Res 2004, 10(24): 8577-86; Suda T et al., Cancer Sci 2006, 97(5): 411-9; Watanabe T et al., Cancer Sci 2005, 96(8): 498-506).
as §1
In general terms: ELISA stands for enzyme-linked immunosorbent assay.

Assay [3] concerns COS7 cells transfected with either full length of WDHD1 or HLA-A*2402. Nature of the assay: Specific CTL activity against control target cells. The format is cell-based, African green monkey. The conditions noted are these: COS7 expressing either HLA-A*2402 or WDHD1 only. An excerpt: (§2) The cDNA encoding an open reading frame of target genes or HLA-A*2402 was amplified by PCR. The PCR-amplified product was cloned into the expression vector. The plasmids were transfected into COS7, which is the target genes and HLA-A*2402-null cell line, using lipofectamine 2000 (Invitrogen) according to the manufacturer's recommended procedures. After 2 days from transfection, the transfected cells were harvested with versene (Invitrogen) and used as the target cells (5×10^4 cells/well) for CTL activity assay.
(§3) The established CTL lines and clone raised against each peptide were examined for the ability to recognize target cells that express WDHD1 and HLA-A*2402 molecule. […] COS7 cells transfected with either full length of WDHD1 or HLA-A* 2402 were prepared as the controls.

Assay [4] relates to peptide-pulsed TISI cells. Nature of the assay: IFN-gamma ELISA assay of CTL clone established by limiting dilution. The format is cell-based, human. The conditions noted are these: target cells pulsed with peptide versus not pulsed; listed as WDHD1-A24-9-844. As to the method: The dilutions were made to have 0.3, 1, and 3 CTLs/well in 96 round-bottomed micro titer plate (Nalge Nunc International). CTLs were cultured with 1×10^4 cells/well of 2 kinds of human B-lymphoblastoid cell lines, 30 ng/ml of anti-CD3 antibody, and 125 U/ml of IL-2 in a total of 150 micro-l/well of AIM-V Medium containing 5% AS. 50 micro-l/well of IL-2 were added to the medium 10 days later so to reach a final concentration of 125 U/ml IL-2. CTL activity was tested on the 14th day, and CTL clones were expanded using the same method as described above (Uchida N et al., Clin Cancer Res 2004, 10(24): 8577-86; Suda T et al., Cancer Sci 2006, 97(5): 411-9; Watanabe T et al., Cancer Sci 2005, 96(8): 498-506).
as §1

Assay [5] concerns COS7 cells transfected with both WDHD1 and HLA-A*2402. Kind of assay: Specific CTL activity against target cells expressing WDHD1 and HLA-A*2402. The format is cell-based, African green monkey. Conditions: COS7 expressing both WDHD1 and HLA-A*2402; listed as WDHD1-A24-9-844.
Source text: as §2, §3

Entries after “also recorded” stand apart in the source; their conditions may differ.

For GYAICGLAW [SEQ ID NO: 14], the “peptide specific CTL activity, IFN-gamma production” value (“peptide specific CTL activity” below) in assay [1] was “potent IFN-gamma production”. With SYLAWIGFSA [SEQ ID NO: 29], in assay [2], the “IFN-gamma production of CTL lines” value is recorded as “potent IFN-gamma production”. The “peptide specific CTL activity” value in assay [1] was “potent IFN-gamma production”.

With KYASRSRKL [SEQ ID NO: 1], the “peptide specific CTL activity” value in assay [1] (listed as WDHD1-A24-9-798) was “not observed”. Regarding TWSPCGQYL [SEQ ID NO: 12], the “IFN-gamma production of CTL lines” value in assay [2] was “potent IFN-gamma production”. Moreover, in assay [1], the “peptide specific CTL activity” value is reported as “potent IFN-gamma production”. With KQILHGDPL [SEQ ID NO: 8], in assay [1], the “peptide specific CTL activity” value is “potent IFN-gamma production”.

With RSVIFHNHL [SEQ ID NO: 6], the “peptide specific CTL activity” value in assay [1] is given as “potent IFN-gamma production”. The same measure, in the same setting: for EQFWRSVIF [SEQ ID NO: 19] the value was “potent IFN-gamma production”. For GYSNTATEW [SEQ ID NO: 13], the “IFN-gamma production of CTL lines” value in assay [2] is “potent IFN-gamma production”. Moreover, the “specific CTL activity of CTL clone against controls” value in assay [3] is “no significant specific CTL activity”. For the same sequence, in assay [4], the “IFN-gamma production of CTL clone” value was “potent IFN-gamma production”. In addition, the “specific CTL activity of CTL clone” value in assay [5] is recorded as “potent CTL activity; also recorded: specific CTL activity”. Moreover, the “peptide specific CTL activity” value in assay [1] is on record as “potent IFN-gamma production”.
